{"source": "patent US7476767B2", "about": "“Alpha-hydroxy sulfonate aldehydes, germicidal compositions containing the alpha-hydroxy sulfonate aldehydes, or mixtures of alpha-hydroxy sulfonate aldehydes and phthalaldehydes, and methods of using the compounds or compositions for disinfection or sterilization” (Ethicon, Inc., priority 2004, dated 2009)", "key": {"[1]": {"system": "Mycobacterium terrae bacteria", "assay": "Bacterial suspension test", "format": "cell-based", "details": "for Log Reductions/mL: 20° C.; for Germicidal Efficacy: Table 14 summary", "method": "In this test method, 9 mL of the germicide to be tested is placed in a tube, put into a water bath and allowed to come to the desired temperature. One mL of the test organism, including at least 7 logs/mL of Mycobacterium terrae bacteria, is added to the 9 mL of the germicide to be tested. […] It will be appreciated by those skilled in the art that other concentrations may be utilized by proper dilution and accounting. At appropriate time intervals, 1 mL aliquots of the germicide-cell suspension were removed and added directly into 9 mL of a 1% glycine solution (neutralizer) and mixed thoroughly to neutralize the germicide in the transferred suspension. The glycine solution was prepared from solid glycine, which is available from VWR Scientific Products, among others. The above-identified 10 mL neutralized solution was then poured through a membrane filter having an average pore size of 0.45 micrometers. The filter was then rinsed twice with at least 150 mL of the 1% glycine solution per rinse. The filter was then placed on an agar plate and incubated for twenty-one days at 37° C. In the above procedure, if dilution was needed, then the 1 mL germicidal-cell suspension was diluted in 99 mL of a phosphate buffer before addition to the 9 mL of the 1% glycine solution. The phosphate buffer was DiLu-LoK™ Butterfields Phosphate Buffer, available from Hardy Diagnostics, of Santa Maria, Calif. The surviving colonies are then counted. The data is plotted as S/So vs. time. So is the initial count of the bacteria in the above 10 mL solution which is at least 10^6 bacteria/mL, and S is the surviving bacteria from the above filter on the agar plate. The results of the experiments were presented in terms of log reductions. Log reduction is the difference between log(So) and log(S). As one example, if log(So)=6.2, and if there were 100 survivors, then the log(S)=2, and the log reduction was reported as 4.2."}, "Solubility in water": {"assay": "Solubility in water", "format": "physicochemical"}}, "data": [{"compound": "O=Cc1ccc(F)cc1C=O", "note": "[4-fluoro-phthalaldehyde]", "values": [{"measurement": "Log Reductions/mL", "setting": "[1]; 0.25%, 60 min exposure", "value": "Total Kill"}]}, {"compound": "O=Cc1ccccc1C=O", "note": "[OPA, phthalaldehyde]", "values": [{"measurement": "Germicidal Efficacy", "setting": "[1]", "value": "Good"}, {"measurement": "solubility in water", "setting": "Solubility in water", "value": "about 5 % by weight"}]}, {"compound": "4-pyridinyl-propanedial", "values": [{"measurement": "Log Reductions/mL", "setting": "[1]; Saturated (~2.3% w/v), 5 min", "value": 4.0, "unit": "log reductions/mL"}]}, {"compound": "O=CC(C=O)c1ccccc1", "note": "[phenyl-propanedial]", "values": [{"measurement": "Log Reductions/mL", "setting": "[1]; Table 15: ~1%, 5 min", "value": 4.5, "unit": "log reductions/mL"}, {"measurement": "solubility in water", "setting": "Solubility in water", "value": "about 1%"}]}, {"compound": "O=Cc1ccc(C=O)cc1", "note": "[TPA, terephthalaldehyde]", "values": [{"measurement": "Log Reductions/mL", "setting": "[1]; 0.2%, dissolved in 20% isopropanol, 5 min", "value": "Confluent"}, {"measurement": "Germicidal Efficacy", "setting": "[1]", "value": "Poor"}]}, {"compound": "O=Cc1ccc(Cl)cc1C=O", "note": "[4-chloro-phthalaldehyde]", "values": [{"measurement": "Log Reductions/mL", "setting": "[1]; 2.7 w/v % in 20% isopropanol, 5 min", "value": "Total Kill"}]}, {"compound": "O=Cc1ccccc1C(O)S(=O)(=O)[O-].[Na+]", "note": "(centres unmarked) [(2-formyl-phenyl)-hydroxy-methane sulfonic acid,sodium salt]", "values": [{"measurement": "Log Reductions/mL", "setting": "[1]; 9.1%, 5 min", "value": "Confluent"}]}, {"compound": "O=Cc1cccc(C=O)c1", "note": "[IPA, isophthalaldehyde]", "values": [{"measurement": "Log Reductions/mL", "setting": "[1]; Table 11: 0.3%, dissolved in 20% isopropanol, 5 min", "value": "Confluent"}, {"measurement": "Germicidal Efficacy", "setting": "[1]", "value": "Poor"}, {"measurement": "Log Reductions/mL", "setting": "[1]; Table 15: 0.3%, dissolved in 20% isopropanol, 5 min", "value": "Confluent"}]}, {"compound": "O=Cc1ccc(Br)cc1C=O", "note": "[4-bromo-phthalaldehyde]", "values": [{"measurement": "Log Reductions/mL", "setting": "[1]; 0.1%, 30 min exposure", "value": "Total Kill"}]}]}
